In patent publication US5300672A (priority 1992, dated 1994):
Values after ≈ are worked out from the molar mass of the structure shown. Read-outs that look alike come from different tables or passages of the source.

How the values were obtained:
[1] = tested on: Erysiphe graminis (f. sp. tritici); test: whole plant or invertebrate; type: in vivo; conditions: Blumeria graminis; read-out: % Control WPM
[2] = tested on: Puccinia graminis (f. sp. tritici Race 15B-2); test: whole plant or invertebrate; type: in vivo; conditions: Puccinia graminis, 336 h, read-out: % Control WSR
[3] = tested on: Aureobasidium pullulans; test: Broth two-fold serial dilution MIC test (Table 3), A.p; type: cell-based; conditions: dilution series 500 to 4 ppm
Excerpt: (§1) A minimum inhibitory concentration (MIC) value is obtained using a broth, two-fold serial dilution test performed as follows: A stock solution or dispersion of the test compound, typically at a concentration of 1%, is made in a 5:3:2 solvent solution of acetone, methanol, and water. A volume of the stock solution is dispensed into culture media to give an initial starting test concentration of 500 ppm compound.
(§2) When the test is ready to be done, each vessel in the dilution series, except the first vessel, contains an equal volume of compound free broth. The first vessel contains twice the volume of broth with the starting concentration of test compound. One half of the broth from the first vessel is transferred to the second vessel. After being mixed, one half the resulting volume is removed from the second vessel and transferred to the third vessel. The entire cycle is repeated sufficiently to give a series of concentrations amounting to 500, 250, 125, 63, 31, 16, 8, and 4 ppm, respectively.
(§3) Each vessel is then inoculated with a cell suspension of the appropriate test organism. Bacteria are grown in broth and fungi on agar slants for a time and at a temperature appropriate to the species being tested. At the end of the growth period, the broth is vortexed to disperse the cells. In the case of fungi, the spores are harvested by pipetting water onto the slant and dislodging the spores with a sterile loop. The cell/spore suspension is standardized by controlling incubation time, temperature, and the volume of the diluent. The suspension is then used to inoculate the vessels containing the broth compound. The vessels are then incubated at the appropriate temperature. After the incubation, the vessels are examined for growth/no growth. The minimum inhibitory concentration (MIC) is defined as the lowest concentration of compound that results in complete inhibition of growth of the test organism.
Aureobasidium pullulans (A.p)

[4] = tested on: Phytophthora infestans; test: whole plant or invertebrate; type: in vivo; conditions: Phytophthora infestans, in Solanum lycopersicum, 96 h; for pest or weed control at 200 ppm: read-out: % Control TLB, application rate 200 ppm
[5] = tested on: Pseudomonas fluorescens; test: Broth two-fold serial dilution MIC test (Table 3), Ps.fl; type: cell-based; conditions: gram negative, dilution series 500 to 4 ppm
Excerpt: as §1, §2, §3
Pseudomonas fluorescens (Ps.fl), gram negative

[6] = tested on: Aspergillus niger; test: Broth two-fold serial dilution MIC test (Table 3), A.n; type: cell-based; conditions: dilution series 500 to 4 ppm
Excerpt: as §1, §2, §3

[7] = tested on: Pythium ultimum; test: Pythium ultimum in vitro Fungitoxicity Assay in liquid culture; type: cell-based, Pythium ultimum (ATCC 26083); conditions: Globisporangium ultimum; mycelial dry weight, 48 h at 25° C., shaking at 60 rpm; read-out: EC 50
Procedure: Selected compounds of Examples 1-120 were subjected also to the following in vitro fungitoxicity assay against Pythium ultimum in a liquid culture, with the results as indicated in Table 6.
Pythium ultimum Fungitoxicity Assay
A dilution series of the test compound was prepared in dimethylsulfoxide, and 0.1 ml of each dilution was added to 19.9 ml of a liquid asparagine-sucrose medium (D. C. Erwin and K. Katznelson (1971), Can. J. Microbiol. 7, 15) in 9 cm diameter petri dishes to give the desired final concentrations of test compound. Plates were inoculated with mycelial plugs, 7 mm diameter, taken from the growing edge of 48 h old cultures of Pythium ultimum, (ATCC 26083), grown on potato dextrose agar. Two replicate plates were used for each treatment. The increase in mycelial dry weight was determined after growth for 48 h at 25° C. with shaking at 60 rpm. EC50 values were calculated from dose response curves.

[8] = tested on: Escherichia coli; test: Broth two-fold serial dilution MIC test (Table 3), E.c; type: cell-based; conditions: gram negative, dilution series 500 to 4 ppm
Excerpt: as §1, §2, §3
Escherichia coli (E.c), gram negative

[9] = tested on: Puccinia recondita (f. sp. tritici Races PKB and PLD); test: whole plant or invertebrate; type: in vivo; conditions: Puccinia recondita, 240 h; read-out: % Control WLR
[10] = tested on: Pseudoperonospora cubensis; test: whole plant or invertebrate; type: in vivo; conditions: Pseudoperonospora cubensis, in Cucumis sativus, 168 h; read-out: % Control CDM
[11] = tested on: Pseudomonas aerugenosa; test: Broth two-fold serial dilution MIC test (Table 3), Ps.ae; type: cell-based; conditions: gram negative, dilution series 500 to 4 ppm
Excerpt: as §1, §2, §3
Pseudomonas aerugenosa (Ps.ae), gram negative

[12] = tested on: Piricularia oryzae; test: whole plant or invertebrate; type: in vivo; conditions: Pyricularia oryzae; for pest or weed control at 100 ppm: read-out: % Control RB, application rate 100 ppm
[13] = tested on: Staphylococcus aureus; test: Broth two-fold serial dilution MIC test (Table 3), S.a; type: cell-based; conditions: gram positive, dilution series 500 to 4 ppm
Excerpt: as §1, §2, §3
Staphylococcus aureus (S.a), gram positive

[14] = tested on: Aureobasidium pullulans; test: Alternate Minimum Inhibitory Concentrations Test (Table 4), A.p; type: cell-based; conditions: Table 4 alternate test, 250 ppm to 0.8 ppm in TSB
[15] = tested on: Pseudomonas fluorescens; test: Alternate Minimum Inhibitory Concentrations Test (Table 4), Ps.fl; type: cell-based; conditions: Pseudomonas fluorescens; Table 4 alternate test; 250 ppm to 0.8 ppm in TSB, 72 hours, 30° C.; read-out: MIC Ps.fl
Procedure, shortened: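 Broth microdilution MIC in TSB: compound (from acetone stock) serially diluted 1:1 from 250 ppm to 0.8 ppm, inoculated with diluted 24 h culture. After 3 days at 30 °C, the lowest concentration with no growth was recorded as MIC.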

[16] = tested on: Candida albicans; test: Alternate Minimum Inhibitory Concentrations Test (Table 4), C.alb; type: cell-based; conditions: Table 4 alternate test, 250 ppm to 0.8 ppm in TSB
[17] = tested on: Escherichia coli; test: Alternate Minimum Inhibitory Concentrations Test (Table 4), E.c; type: cell-based; conditions: Table 4 alternate test, 250 ppm to 0.8 ppm in TSB
[18] = tested on: Pseudomonas aerugenosa; test: Alternate Minimum Inhibitory Concentrations Test (Table 4), Ps.ae; type: cell-based; conditions: Table 4 alternate test, 250 ppm to 0.8 ppm in TSB
[19] = tested on: Staphylococcus aureus; test: Alternate Minimum Inhibitory Concentrations Test (Table 4), S.a; type: cell-based; conditions: Table 4 alternate test, 250 ppm to 0.8 ppm in TSB
[20] = tested on: Aspergillus niger; test: Alternate Minimum Inhibitory Concentrations Test (Table 4), A.n; type: cell-based; conditions: Table 4 alternate test, 250 ppm to 0.8 ppm in TSB
[21] = tested on: Pellicularia filamentosa (f. sp. sasiki); test: whole plant or invertebrate; type: in vivo; conditions: 120 h; read-out: % Control RSB
[22] = read-out: % Control TLB, application rate 100 ppm

Row | Compound | pest or weed control at 100 ppm [1] [%] | pest or weed control at 200 ppm [2] [%] | MIC [3] [µg/mL] | pest or weed control at 100 ppm [4, 22] [%] | MIC [5] [µg/mL] | MIC [6] [µg/mL] | MIC [8] [µg/mL] | pest or weed control at 100 ppm [9] [%] | pest or weed control at 50 ppm [10] [%] | MIC [11] [µg/mL] | pest or weed control at 100 ppm [12] [%] | MIC [13] [µg/mL] | MIC [14] [µg/mL] | MIC [15] [µg/mL] | MIC [16] [µg/mL] | MIC [17] [µg/mL] | MIC [18] [µg/mL] | MIC [19] [µg/mL] | MIC [20] [µg/mL] | pest or weed control at 100 ppm [21] [%] | also measured
1 | CCCCCCCCNC(=O)/C=C\SC(=O)c1ccc(C)cc1C [Compound 43, N-octyl-cis-3-[(2,4-dimethylbenzoyl)thio]acrylamide] | 0 | 50 | 16 (≈ 46 µM) | 0 | > 500 | > 500 | > 500 | 0 | 50 | > 500 | 0 | > 500 | – | – | – | – | – | – | – | – | EC50 [7]: 5.2 µg/mL (≈ 15 µM)
2 | CCCCCCCCNC(=O)/C=C\SC(=O)c1ccc([N+](=O)[O-])c(OC)c1 [Compound 105, N-octyl-cis-3-[(3-methoxy-4-nitrobenzoyl)thio]acrylamide] | – | – | – | – | – | – | – | – | – | – | – | – | < 2 | ≥ 125 | < 2 | > 250 | > 250 | > 250 | 24 (≈ 60.8 µM) | – | pest or weed control at 200 ppm [1]: 0%; pest or weed control at 200 ppm [4]: 0%; pest or weed control at 200 ppm [9]: 0%; pest or weed control at 200 ppm [10]: 90%
3 | C#CCNC(=O)/C=C\SC(=O)c1ccccc1 [Compound 113, N-(2-propynyl)-cis-3-(benzoylthio)acrylamide] | – | – | – | – | – | – | – | – | – | – | – | – | 31 (≈ 126 µM) | 63 (≈ 257 µM) | ≥ 125 | 31 (≈ 126 µM) | 125 (≈ 510 µM) | 63 (≈ 257 µM) | ≥ 250 | – | pest or weed control at 200 ppm [1]: 0%; pest or weed control at 200 ppm [4]: 0%; EC50 [7]: 6.9 µg/mL (≈ 28.1 µM); pest or weed control at 50 ppm [9]: 25%; pest or weed control at 200 ppm [10]: 50%; pest or weed control at 200 ppm ([12]; read-out: % Control RB, application rate 200 ppm): 0%
4 | CCCCCCCCNC(=O)/C=C\SC(=O)CCCl [Compound 24, N-octyl-cis-3-[(3-chloropropanoyl)thio]acrylamide] | 0 | – | – | 95 | – | – | – | 0 | – | – | 0 | – | < 2 | > 250 | 12 (≈ 39.2 µM) | > 250 | > 250 | > 250 | 63 (≈ 206 µM) | 0 | –
5 | CCCCCCCCNC(=O)/C=C\SC(=O)CCC1CCCC1 [Compound 11, N-octyl-cis-3-[(3-cyclopentanepropanoyl)thio]acrylamide] | 0 | 90 | < 4 | – | > 500 | 250 (≈ 736 µM) | > 500 | 50 | 85 | > 500 | – | > 500 | – | – | – | – | – | – | – | 0 | pest or weed control at 100 ppm ([4]; read-out: % Control TLB): 90%; pest or weed control at 50 ppm ([12]; read-out: % Control RB, application rate 50 ppm): 75%
6 | CCCCCCCCNC(=O)/C=C\SC(=O)CC [Compound 10, N-octyl-cis-3-(propanoylthio)acrylamide] | 0 | 90 | < 4 | – | 16 (≈ 58.9 µM) | 125 (≈ 461 µM) | > 500 | 50 | 85 | > 500 | 80 | < 4 | – | – | – | – | – | – | – | 0 | pest or weed control at 100 ppm ([4]; read-out: % Control TLB): 90%
